Experimental data as given in patent US20250332326A1, “METHOD OF GENERATING 3D POROUS HYBRID PROTEIN NANOSCAFFOLD” (Rutgers, The State University of New Jersey, priority 2024, published 2025).

Assays:
[1] = tested on: LPS-stimulated THP-1-derived macrophages; experiment: qRT-PCR of inflammatory genes in LPS-stimulated macrophages co-cultured with scaffolds; format: cell-based, human; conditions: Transwell system, 50, 100, 200 μg/mL BETi loading
Procedure: THP-1 monocytes were purchased from ATCC® and cultured using standard protocol provided by the vendor (10% FBS in 1640 RPMI basal media supplemented with […] beta-mercaptoethanol). Media was refreshed every other day. THP-1 monocytes were cultured at a density of 100,000 to 500,000 cells per mL. When they proliferate above the density, cells were centrifuged down for media change. To convert suspension culture of THP-1 monocytes into adherent macrophages, 200 ng/ml of phorbol myristate acetate (PMA) was added into the media then split into 24 well plates at designated density (100,000 per well). PMA was treated for 1-3 days then fresh growth media without PMA was added. To stimulate the macrophages, 1,000 ng/mL lipopolysaccharide (LPS, Sigma Aldrich) was included in the media for 4 hours. Macrophages were converted from THP-1 monocytes through PMA activation. Then different scaffold conditions, including chitosan nanoscaffold, 3D-PHP nanoscaffold, and control (PBS only), as well as 3D-PHP nanoscaffold loaded with low (50 μg), medium (100 μg) and high (200 μg) dosages of BETi (JQ-1 from Tocris) drugs were added into the macrophage cultured followed by the addition of 1 μg/mL LPS for stimulation of macrophages. […] Cells were lysed with Trizol®, and then the lysates were stored at −80° C. until ready for use. […]

[2] = tested on: rat nucleotomy disc injury model; experiment: Rat nucleotomy disc injury model, histological and MRI analysis 6 WPI; format: in vivo
Procedure: Rats were anesthetized by injection of 2 mg/kg midazolam and 0.15 mg/kg medetomidine and butorphanol tartrate. After rats reached deep anesthesia, which was confirmed by tail pinching, posterior midline incision was performed at the Co6-7 level to expose the intervertebral disc. A no. 11 scalpel was used for the incision of posterior AF and the longitudinal cut was around 2 mm. […] After the nucleotomy, nanoscaffolds were pushed into the empty space using a micropipette tip. As controls, PBS was injected into the empty space after the nucleotomy. A heating pad was provided underneath the rats throughout the procedure and the rats were observed during recovery from the anesthesia.
MRI was performed on rats 6 WPI using a Bruker BioSpec (9.4 T) MRI scanner in order to investigate the regeneration of discs after the nucleotomy, which can be quantified by the signal intensities and water content through T2-weighted MRI. In the MRI study, time-to-repetition was set as 5,000 ms; time-toecho was set to 30 ms; and coronal axial planes were imaged for the rat discs. MRI index and signal intensities were used for the calculation of degree of damage of coccygeal disc tissues. Region of interest (ROI) was defined as the higher intensity area in the coronal plane and ROI was quantified using Fiji (Image J). MRI index was measured with blind tests by two independent observers.
At 6 WPI, animals were all sacrificed and disc tissues were harvested and fixed using 10% buffered formalin for one week. Decalcification was then performed using Rapid Cal Immuno™ (BBC biochemical) for another 2 weeks. Disc tissues were then paraffin-embedded and sectioned in the coronal directions with a Leica microtome. After dewaxing, rehydration, and permeabilization by methanol, H&E, immunohistofluorescent, and Safranin-O staining were performed on different sections. For H&E staining, tissue sections were stained in a solution with Mayer's Hematoxylin for 5 minutes then washed with water and counterstained in alcoholic solution of eosin for another minute without rinsing. […] For the Safranin-O staining, tissues were stained for 10 minutes by Weigert's iron hematoxylin solution followed by extensive washing with water. Then fast green solution was used for the second staining for 5 minutes followed by brief rinsing with 1% acetic acid solution and then stained with 0.1% Safranin-O solution. Afterwards, tissues were dehydrated and cleared using identical protocol as mentioned in the H&E staining. Safranin-O staining score was based on an 8-point scale previous used for IVD tissue analysis, and if no degenerative features were found a zero score was assigned. For the immunohistofluorescent and immunohistochemistry staining of inflammatory (e.g., MMP13 and IL1β), ECM (aggrecan, Collagen II) and pain (e.g., CGRP) markers, disc tissues with fixation and decalfication were first dewaxed, sectioned into 10 μm sections, and stained with primary antibodies followed by 24 hours incubation. After washing with PBS containing 0.1% Tween 20, the secondary antibodies were added and incubated for 2 hours. Finally, the nucleus was stained with DAPI for 15 minutes. Sections were then examined under a fluorescent or colorimetric microscope with a Zeiss 880 confocal microscope and Olympus microscope, respectively. ImageJ was used for quantification in an automatic manner.

## Cc1sc2c(c1C)C(c1ccc(Cl)cc1)=N[C@@H](CC(=O)OC(C)(C)C)c1nnc(C)n1-2 [BETi, JQ1]
[1]
  inflammatory responses (pro- and anti-inflammatory gene expression): significantly lowered the inflammatory responses
[2]
  IL-1β expression (positive area, immunostaining): did not induce a significant reduction
  MMP-13 levels (immunostaining): did not suppress
[2]; compared to injury alone
  CGRP signals (pain marker, positive area ratio): considerably less reduction
[2]; implanted or injected on day of nucleotomy
  disc integrity / healthy disc tissue (H&E staining, MRI index): slightly improved the restoration of the disc structure
[2]; result in words
  up-regulation of Collagen II and aggrecan: did not result in noticeable up-regulation
